From article PMC11524583, “Neurons enhance blood–brain barrier function via upregulating claudin-5 and VE-cadherin expression due to glial cell line-derived neurotrophic factor secretion” (eLife, 2024)
Where “and” joins values, the source holds several entries; their conditions need not be identical. Equal values may be shown once. Read-outs that look alike come from different tables or passages of the source.

How the values were obtained:
[1] = In vitro BBB permeability study (Papp), double co-culture with U251 cells (h+U); format: in vitro ADME, Homo sapiens; conditions: human, group h+U, Figure 1D/1E
[2] = test system: double co-culture BBB model (hCMEC/D3 and U251 cells); assay: as above; format: in vitro ADME, Homo sapiens; conditions: group h+U, Figure 1D/1E; single biological replicate; listed as NaF
[3] = In vitro BBB permeability study (Papp), double co-culture with SH-SY5Y cells (h+S); format: in vitro ADME, Homo sapiens; conditions: human, group h+S, Figure 1D/1E
[4] = test system: double co-culture BBB model (hCMEC/D3 and SH-SY5Y cells); assay: as above; format: in vitro ADME, Homo sapiens; conditions: group h+S, Figure 1D/1E; single biological replicate; listed as NaF
[5] = Permeability (Papp) across U251 mono-culture model; format: in vitro ADME, Homo sapiens; conditions: human, group U251 mono-culture, Figure 1F
U251 cells monolayer = assay: Permeability (Papp) across U251 mono-culture model; format: in vitro ADME, Homo sapiens; conditions: group U251 mono-culture, Figure 1F; single replicate
[6] = Permeability (Papp) across the blank inserts; format: in vitro ADME; conditions: blank inserts (no cells), Figure 1F; for Papp at 30 min: not told
Experimental: Therefore, the subsequent experiments were all completed on day 6. The culture medium was removed from the apical and basolateral sides of the inserts and washed twice with preheated Hank’s balanced salt solution (HBSS). Fresh HBSS was then added to both the apical and basolateral chambers. […] Next, 200 μl aliquots were collected from the basolateral chamber after 30 min of incubation at 37°C. The concentrations of the tested agents in the basolateral chamber were measured.
The apparent permeability coefficient (Papp, cm/s) values of the tested agents across the in vitro BBB model were calculated using the equation ([Tavelin et al., 2002]):(1) Papp=(Q/1800)/(S×C0)
where S is the surface area of the insert membrane (0.33 cm^2 for 6.5 mm inserts, 4.46 cm^2 for 24 mm inserts), Q is the transported amount of the tested agents transported from the donor chamber to the receiver chamber for 30 min (1800 s), and C0 is the initial concentration of the tested agents in the donor chamber.

[7] = In vitro BBB permeability study (Papp), triple co-culture BBB model; conditions: human
[8] = test system: triple co-culture BBB model (hCMEC/D3, U251 and SH-SY5Y cells); assay: as above
[9] = In vitro BBB permeability study (Papp), hCMEC/D3 mono-culture BBB model; conditions: human
[10] = test system: hCMEC/D3 mono-culture BBB model; assay: as above
[11] = BBB permeability in brain-specific Gdnf knockdown mice (brain distribution of fluorescein and FITC-Dex); conditions: Gdnf silencing (shGdnf) vs shNC mice; i.v., 30 min
[12] = mean of four replicates, read-out: Papp Mean
[13] = single biological replicate, read-out: Papp
[14] = single replicate, read-out: Papp

Structure (SMILES): O=C1OC2(c3ccc(O)cc3Oc3cc(O)ccc32)c2ccccc21 [fluorescein, fluorescein sodium]
- Papp A→B at 30 min [1, 12]: 29.1 ×10⁻⁶ cm/s
- Papp A→B at 30 min [1, 13]: 28.2 ×10⁻⁶ cm/s
- Papp A→B [2]: 30.2 ×10⁻⁶ cm/s and 29.6 ×10⁻⁶ cm/s and 28.1 ×10⁻⁶ cm/s
- Papp A→B at 30 min [3, 12]: 27.8 ×10⁻⁶ cm/s
- Papp A→B at 30 min [3, 13]: 29.4 ×10⁻⁶ cm/s
- Papp A→B [4]: 29.1 ×10⁻⁶ cm/s and 23.2 ×10⁻⁶ cm/s and 29.5 ×10⁻⁶ cm/s
- Papp A→B at 30 min [5, 12]: 30.6 ×10⁻⁶ cm/s
- Papp A→B at 30 min [5, 14]: 29.5 ×10⁻⁶ cm/s
- Papp A→B (U251 cells monolayer): 30.6 ×10⁻⁶ cm/s and 31.9 ×10⁻⁶ cm/s and 30.2 ×10⁻⁶ cm/s
- Papp ([6]; single replicate): 72.71 ×10⁻⁶ cm/s and 72.14 ×10⁻⁶ cm/s and 72.59 ×10⁻⁶ cm/s
- Papp at 30 min [6, 12]: 71.6 ×10⁻⁶ cm/s
- Papp at 30 min [6, 14]: 68.7 ×10⁻⁶ cm/s
- Papp A→B at 30 min ([7]; Papp Mean, Triple group, mean of 4, Figure 2R): 25 ×10⁻⁶ cm/s
- Papp A→B at 30 min ([7]; Papp Mean, Triple group, mean of 4, Figure 2T): 20.5 ×10⁻⁶ cm/s
- Papp A→B at 30 min ([7]; Papp Mean, Triple+PP2 group, mean of 4, Figure 2T): 27.5 ×10⁻⁶ cm/s
- Papp A→B at 30 min ([7]; Papp Mean, Triple+SPP group, mean of 4, Figure 2R): 30 ×10⁻⁶ cm/s
- Papp A→B at 30 min ([7]; Papp Mean, group h+S+U, Figure 1D/1E, mean of four replicates): 24.9 ×10⁻⁶ cm/s
- Papp A→B at 30 min ([7]; Papp(cm/s), group h+S+U, Figure 1D/1E, single biological replicate): 26.1 ×10⁻⁶ cm/s
- Papp A→B at 30 min ([7]; Papp, Triple group, single replicates, Figure 2R): 25.3 ×10⁻⁶ cm/s
- Papp A→B at 30 min ([7]; Papp, Triple group, single replicates, Figure 2T): 21.5 ×10⁻⁶ cm/s
- Papp A→B at 30 min ([7]; Papp, Triple+PP2 group, single replicates, Figure 2T): 28.2 ×10⁻⁶ cm/s
- Papp A→B at 30 min ([7]; Papp, Triple+SPP group, single replicates, Figure 2R): 30.6 ×10⁻⁶ cm/s
- Papp A→B ([8]; read-out: Papp(cm/s), group h+S+U, Figure 1D/1E, single biological replicate, listed as NaF): 26.4 ×10⁻⁶ cm/s and 23.5 ×10⁻⁶ cm/s and 23.6 ×10⁻⁶ cm/s
- Papp A→B ([8]; read-out: Papp, Triple group, single replicates, Figure 2R): 24.7 ×10⁻⁶ cm/s and 24.9 ×10⁻⁶ cm/s and 25 ×10⁻⁶ cm/s
- Papp A→B ([8]; read-out: Papp, Triple group, single replicates, Figure 2T): 20.2 ×10⁻⁶ cm/s and 20.5 ×10⁻⁶ cm/s and 19.8 ×10⁻⁶ cm/s
- Papp A→B ([8]; read-out: Papp, Triple+PP2 group, single replicates, Figure 2T): 26.4 ×10⁻⁶ cm/s
- Papp A→B ([8]; read-out: Papp, Triple+SPP group, single replicates, Figure 2R): 29.1 ×10⁻⁶ cm/s and 30.2 ×10⁻⁶ cm/s
- Papp A→B at 30 min ([9]; Papp Mean, Mono group, mean of 4, Figure 2R): 31.8 ×10⁻⁶ cm/s
- Papp A→B at 30 min ([9]; Papp Mean, Mono group, mean of 4, Figure 2T): 30.4 ×10⁻⁶ cm/s
- Papp A→B at 30 min ([9]; Papp Mean, group h, Figure 1D/1E, mean of four replicates): 32.2 ×10⁻⁶ cm/s
- Papp A→B at 30 min ([9]; Papp Mean, group hCEMC/D3 mono-culture, Figure 1F, mean of four replicates): 35.7 ×10⁻⁶ cm/s
- Papp A→B at 30 min ([9]; Papp(cm/s) Mean, Figure 2N, group GDNF+SPP, group mean): 24.5 ×10⁻⁶ cm/s
- Papp A→B at 30 min ([9]; Papp(cm/s) Mean, Figure 2N, group GDNF, group mean): 19 ×10⁻⁶ cm/s
- Papp A→B at 30 min ([9]; Papp(cm/s) Mean, Figure 2N, group Mono, group mean): 23.8 ×10⁻⁶ cm/s
- Papp A→B at 30 min ([9]; Papp(cm/s) Mean, Figure 2P, group GDNF+PP2, group mean): 28.2 ×10⁻⁶ cm/s
- Papp A→B at 30 min ([9]; Papp(cm/s) Mean, Figure 2P, group GDNF, group mean): 23.5 ×10⁻⁶ cm/s
- Papp A→B at 30 min ([9]; Papp(cm/s) Mean, Figure 2P, group Mono, group mean): 30.8 ×10⁻⁶ cm/s
- Papp A→B at 30 min ([9]; Papp(cm/s), Figure 2N, group GDNF+SPP, individual replicates): 26.5 ×10⁻⁶ cm/s
- Papp A→B at 30 min ([9]; Papp(cm/s), Figure 2N, group GDNF, individual replicates): 19.4 ×10⁻⁶ cm/s
- Papp A→B at 30 min ([9]; Papp(cm/s), Figure 2N, group Mono, individual replicates): 21.9 ×10⁻⁶ cm/s
- Papp A→B at 30 min ([9]; Papp(cm/s), Figure 2P, group GDNF+PP2, individual replicates): 27.5 ×10⁻⁶ cm/s
- Papp A→B at 30 min ([9]; Papp(cm/s), Figure 2P, group GDNF, individual replicates): 23.6 ×10⁻⁶ cm/s
- Papp A→B at 30 min ([9]; Papp(cm/s), Figure 2P, group Mono, individual replicates): 31 ×10⁻⁶ cm/s
- Papp A→B at 30 min ([9]; Papp(cm/s), group h, Figure 1D/1E, single biological replicate): 31.7 ×10⁻⁶ cm/s
- Papp A→B at 30 min ([9]; Papp(cm/s), group hCEMC/D3 mono-culture, Figure 1F, single replicate): 36.2 ×10⁻⁶ cm/s
- Papp A→B at 30 min ([9]; Papp, Mono group, single replicates, Figure 2R): 30.7 ×10⁻⁶ cm/s
- Papp A→B at 30 min ([9]; Papp, Mono group, single replicates, Figure 2T): 30.8 ×10⁻⁶ cm/s
- Papp A→B ([10]; read-out: Papp(cm/s), Figure 2N, group GDNF+SPP, individual replicates): 22 ×10⁻⁶ cm/s and 26.7 ×10⁻⁶ cm/s
- Papp A→B ([10]; read-out: Papp(cm/s), Figure 2N, group GDNF, individual replicates): 17.7 ×10⁻⁶ cm/s and 20.6 ×10⁻⁶ cm/s and 18.3 ×10⁻⁶ cm/s
- Papp A→B ([10]; read-out: Papp(cm/s), Figure 2N, group Mono, individual replicates): 24.3 ×10⁻⁶ cm/s and 25.1 ×10⁻⁶ cm/s and 23.7 ×10⁻⁶ cm/s
- Papp A→B ([10]; read-out: Papp(cm/s), Figure 2P, group GDNF+PP2, individual replicates): 28.3 ×10⁻⁶ cm/s
- Papp A→B ([10]; read-out: Papp(cm/s), Figure 2P, group GDNF, individual replicates): 23.3 ×10⁻⁶ cm/s (2×) and 23.8 ×10⁻⁶ cm/s
- Papp A→B ([10]; read-out: Papp(cm/s), Figure 2P, group Mono, individual replicates): 30.5 ×10⁻⁶ cm/s and 31.5 ×10⁻⁶ cm/s and 30.3 ×10⁻⁶ cm/s
- Papp A→B ([10]; read-out: Papp(cm/s), group h, Figure 1D/1E, single biological replicate, listed as NaF): 32 ×10⁻⁶ cm/s and 32.7 ×10⁻⁶ cm/s and 32.5 ×10⁻⁶ cm/s
- Papp A→B ([10]; read-out: Papp(cm/s), group hCEMC/D3 mono-culture, Figure 1F, single replicate): 35.9 ×10⁻⁶ cm/s and 34.8 ×10⁻⁶ cm/s and 36 ×10⁻⁶ cm/s
- Papp A→B ([10]; read-out: Papp, Mono group, single replicates, Figure 2R): 31.7 ×10⁻⁶ cm/s and 33.3 ×10⁻⁶ cm/s and 31.4 ×10⁻⁶ cm/s
- Papp A→B ([10]; read-out: Papp, Mono group, single replicates, Figure 2T): 29.5 ×10⁻⁶ cm/s and 30.3 ×10⁻⁶ cm/s
- brain-to-plasma concentration ratios [11]: notable increases
